From article PMC8217813, “Bridging Computational Vaccinology and Vaccine Development Through Systematic Identification, Characterization, and Downselection of Conserved and Variable Circumsporozoite Protein CD4 T Cell Epitopes From Diverse Plasmodium falciparum Strains” (Frontiers in Immunology, 2021)
Read-outs that look alike come from different tables or passages of the source. Peptide text beside a SMILES is read from it.

How the values were obtained:
[1] = molecular target: T1, HLA A*0101 (Homo sapiens, UniProt P04439, A114D/A174V/A182V/D101N/D185E/E176A/E190D/L180R/Q94H/R68K/S129P/T187R/V100A/V91M/W191G); assay: biochemical; format: binding
T1 construct: Pure Protein, LLC (ran the assay)

[2] = tested on: CD4 T cells co-cultured with autologous DCs from PBMCs; format: cell-based, human; conditions: positive = Stimulation Index ≥1.5-fold above baseline, 5 µg/mL peptide; for Percentage of donors demonstrating IFN-γ responses, DR1 / Percentage of donors demonstrating IL-2 responses, DR1 / Percentage of donors demonstrating IL-4 responses, DR1 / Percentage of donors demonstrating IL-10 responses, DR1 / Percentage of donors demonstrating TNF-α responses, DR1: DR1 donors N=5; for Percentage of donors demonstrating IFN-γ responses, DR1 / Percentage of donors demonstrating IFN-γ responses, DR3 / Percentage of donors demonstrating IFN-γ responses, DR4 / Percentage of donors demonstrating IFN-γ responses, DR7 / Percentage of donors demonstrating IFN-γ responses, DR8 / Percentage of donors demonstrating IFN-γ responses, DR9 / Percentage of donors demonstrating IFN-γ responses, DR11 / Percentage of donors demonstrating IFN-γ responses, DR13 / Percentage of donors demonstrating IFN-γ responses, DR15: ICCS after 14-day co-culture; for Percentage of donors demonstrating IL-2 responses, DR1 / Percentage of donors demonstrating IL-4 responses, DR1 / Percentage of donors demonstrating IL-10 responses, DR1 / Percentage of donors demonstrating TNF-α responses, DR1 / Percentage of donors demonstrating IL-2 responses, DR3 / Percentage of donors demonstrating IL-4 responses, DR3 / Percentage of donors demonstrating IL-10 responses, DR3 / Percentage of donors demonstrating TNF-α responses, DR3 / Percentage of donors demonstrating IL-2 responses, DR4 / Percentage of donors demonstrating IL-4 responses, DR4 / Percentage of donors demonstrating IL-10 responses, DR4 / Percentage of donors demonstrating TNF-α responses, DR4 / Percentage of donors demonstrating IL-2 responses, DR7 / Percentage of donors demonstrating IL-4 responses, DR7 / Percentage of donors demonstrating IL-10 responses, DR7 / Percentage of donors demonstrating TNF-α responses, DR7 / Percentage of donors demonstrating IL-2 responses, DR8 / Percentage of donors demonstrating IL-4 responses, DR8 / Percentage of donors demonstrating IL-10 responses, DR8 / Percentage of donors demonstrating TNF-α responses, DR8 / Percentage of donors demonstrating IL-2 responses, DR9 / Percentage of donors demonstrating IL-4 responses, DR9 / Percentage of donors demonstrating IL-10 responses, DR9 / Percentage of donors demonstrating TNF-α responses, DR9 / Percentage of donors demonstrating IL-2 responses, DR11 / Percentage of donors demonstrating IL-4 responses, DR11 / Percentage of donors demonstrating IL-10 responses, DR11 / Percentage of donors demonstrating TNF-α responses, DR11 / Percentage of donors demonstrating IL-2 responses, DR13 / Percentage of donors demonstrating IL-4 responses, DR13 / Percentage of donors demonstrating IL-10 responses, DR13 / Percentage of donors demonstrating TNF-α responses, DR13 / Percentage of donors demonstrating IL-2 responses, DR15 / Percentage of donors demonstrating IL-4 responses, DR15 / Percentage of donors demonstrating IL-10 responses, DR15 / Percentage of donors demonstrating TNF-α responses, DR15: ICCS; for Percentage of donors demonstrating IFN-γ responses, DR3 / Percentage of donors demonstrating IL-2 responses, DR3 / Percentage of donors demonstrating IL-4 responses, DR3 / Percentage of donors demonstrating IL-10 responses, DR3 / Percentage of donors demonstrating TNF-α responses, DR3: DR3 donors N=6; for Percentage of donors demonstrating IFN-γ responses, DR4 / Percentage of donors demonstrating IL-2 responses, DR4 / Percentage of donors demonstrating IL-4 responses, DR4 / Percentage of donors demonstrating IL-10 responses, DR4 / Percentage of donors demonstrating TNF-α responses, DR4: DR4 donors N=10; for Percentage of donors demonstrating IFN-γ responses, DR7 / Percentage of donors demonstrating IL-2 responses, DR7 / Percentage of donors demonstrating IL-4 responses, DR7 / Percentage of donors demonstrating IL-10 responses, DR7 / Percentage of donors demonstrating TNF-α responses, DR7: DR7 donors N=4; for Percentage of donors demonstrating IFN-γ responses, DR8 / Percentage of donors demonstrating IL-2 responses, DR8 / Percentage of donors demonstrating IL-4 responses, DR8 / Percentage of donors demonstrating IL-10 responses, DR8 / Percentage of donors demonstrating TNF-α responses, DR8: DR8 donors N=4; for Percentage of donors demonstrating IFN-γ responses, DR9 / Percentage of donors demonstrating IL-2 responses, DR9 / Percentage of donors demonstrating IL-4 responses, DR9 / Percentage of donors demonstrating IL-10 responses, DR9 / Percentage of donors demonstrating TNF-α responses, DR9: DR9 donors N=4; for Percentage of donors demonstrating IFN-γ responses, DR11 / Percentage of donors demonstrating IL-2 responses, DR11 / Percentage of donors demonstrating IL-4 responses, DR11 / Percentage of donors demonstrating IL-10 responses, DR11 / Percentage of donors demonstrating TNF-α responses, DR11: DR11 donors N=4; for Percentage of donors demonstrating IFN-γ responses, DR13 / Percentage of donors demonstrating IL-2 responses, DR13 / Percentage of donors demonstrating IL-4 responses, DR13 / Percentage of donors demonstrating IL-10 responses, DR13 / Percentage of donors demonstrating TNF-α responses, DR13: DR13 donors N=7; for Percentage of donors demonstrating IFN-γ responses, DR15 / Percentage of donors demonstrating IL-2 responses, DR15 / Percentage of donors demonstrating IL-4 responses, DR15 / Percentage of donors demonstrating IL-10 responses, DR15 / Percentage of donors demonstrating TNF-α responses, DR15: DR15 donors N=7
[3] = allele A0101, cell-free competition with fluorescently labeled control peptide, fluorescence polarization at 72 hours, read-out: IC50

CC[C@H](C)[C@H](NC(=O)[C@H](Cc1c[nH]cn1)NC(=O)[C@H](CCCCN)NC(=O)[C@H](CC(=O)O)NC(=O)[C@H](CO)NC(=O)[C@@H]1CCCN1)C(=O)N[C@H](C(=O)N[C@@H](CCC(=O)O)C(=O)N[C@@H](Cc1ccc(O)cc1)C(=O)O)[C@@H](C)O [Cluster 311_ICS2] (H-PSDKHITEY-OH)
IC50 [1]: 2670 nM

CC[C@H](C)[C@H](NC(=O)[C@H](Cc1c[nH]cn1)NC(=O)[C@H](CCCCN)NC(=O)[C@H](CC(=O)O)NC(=O)[C@H](CO)NC(=O)[C@@H]1CCCN1)C(=O)N[C@@H](CCC(=O)O)C(=O)N[C@@H](CCC(N)=O)C(=O)N[C@@H](Cc1ccc(O)cc1)C(=O)O [Cluster 311_ICS7] (H-PSDKHIEQY-OH)
IC50 [1]: 2000 nM

DKHIEKYLKRIQNSLSTEWS [ICS9]
Percentage of donors demonstrating IFN-γ responses, DR1 [2]: 40% | Percentage of donors demonstrating IL-2 responses, DR1 [2]: 20% | Percentage of donors demonstrating IL-4 responses, DR1 [2]: 0% | Percentage of donors demonstrating IL-10 responses, DR1 [2]: 0% | Percentage of donors demonstrating TNF-α responses, DR1 [2]: 40% | Percentage of donors demonstrating IFN-γ responses, DR3 [2]: 50% | Percentage of donors demonstrating IL-2 responses, DR3 [2]: 33% | Percentage of donors demonstrating IL-4 responses, DR3 [2]: 33% | Percentage of donors demonstrating IL-10 responses, DR3 [2]: 17% | Percentage of donors demonstrating TNF-α responses, DR3 [2]: 50% | Percentage of donors demonstrating IFN-γ responses, DR4 [2]: 70% | Percentage of donors demonstrating IL-2 responses, DR4 [2]: 50% | Percentage of donors demonstrating IL-4 responses, DR4 [2]: 0% | Percentage of donors demonstrating IL-10 responses, DR4 [2]: 10% | Percentage of donors demonstrating TNF-α responses, DR4 [2]: 70% | Percentage of donors demonstrating IFN-γ responses, DR7 [2]: 75% | Percentage of donors demonstrating IL-2 responses, DR7 [2]: 50% | Percentage of donors demonstrating IL-4 responses, DR7 [2]: 25% | Percentage of donors demonstrating IL-10 responses, DR7 [2]: 0% | Percentage of donors demonstrating TNF-α responses, DR7 [2]: 50% | Percentage of donors demonstrating IFN-γ responses, DR8 [2]: 50% | Percentage of donors demonstrating IL-2 responses, DR8 [2]: 75% | Percentage of donors demonstrating IL-4 responses, DR8 [2]: 0% | Percentage of donors demonstrating IL-10 responses, DR8 [2]: 0% | Percentage of donors demonstrating TNF-α responses, DR8 [2]: 100% | Percentage of donors demonstrating IFN-γ responses, DR9 [2]: 50% | Percentage of donors demonstrating IL-2 responses, DR9 [2]: 50% | Percentage of donors demonstrating IL-4 responses, DR9 [2]: 0% | Percentage of donors demonstrating IL-10 responses, DR9 [2]: 0% | Percentage of donors demonstrating TNF-α responses, DR9 [2]: 50% | Percentage of donors demonstrating IFN-γ responses, DR11 [2]: 75% | Percentage of donors demonstrating IL-2 responses, DR11 [2]: 50% | Percentage of donors demonstrating IL-4 responses, DR11 [2]: 0% | Percentage of donors demonstrating IL-10 responses, DR11 [2]: 0% | Percentage of donors demonstrating TNF-α responses, DR11 [2]: 75% | Percentage of donors demonstrating IFN-γ responses, DR13 [2]: 43% | Percentage of donors demonstrating IL-2 responses, DR13 [2]: 43% | Percentage of donors demonstrating IL-4 responses, DR13 [2]: 0% | Percentage of donors demonstrating IL-10 responses, DR13 [2]: 14% | Percentage of donors demonstrating TNF-α responses, DR13 [2]: 57% | Percentage of donors demonstrating IFN-γ responses, DR15 [2]: 57% | Percentage of donors demonstrating IL-2 responses, DR15 [2]: 43% | Percentage of donors demonstrating IL-4 responses, DR15 [2]: 14% | Percentage of donors demonstrating IL-10 responses, DR15 [2]: 43% | Percentage of donors demonstrating TNF-α responses, DR15 [2]: 43%

DQHIEQYLKKIQNSISTEWS [ICS3]
Percentage of donors demonstrating IFN-γ responses, DR1 [2]: 80% | Percentage of donors demonstrating IL-2 responses, DR1 [2]: 80% | Percentage of donors demonstrating IL-4 responses, DR1 [2]: 0% | Percentage of donors demonstrating IL-10 responses, DR1 [2]: 20% | Percentage of donors demonstrating TNF-α responses, DR1 [2]: 60% | Percentage of donors demonstrating IFN-γ responses, DR3 [2]: 33% | Percentage of donors demonstrating IL-2 responses, DR3 [2]: 0% | Percentage of donors demonstrating IL-4 responses, DR3 [2]: 17% | Percentage of donors demonstrating IL-10 responses, DR3 [2]: 17% | Percentage of donors demonstrating TNF-α responses, DR3 [2]: 0% | Percentage of donors demonstrating IFN-γ responses, DR4 [2]: 30% | Percentage of donors demonstrating IL-2 responses, DR4 [2]: 40% | Percentage of donors demonstrating IL-4 responses, DR4 [2]: 10% | Percentage of donors demonstrating IL-10 responses, DR4 [2]: 0% | Percentage of donors demonstrating TNF-α responses, DR4 [2]: 40% | Percentage of donors demonstrating IFN-γ responses, DR7 [2]: 75% | Percentage of donors demonstrating IL-2 responses, DR7 [2]: 50% | Percentage of donors demonstrating IL-4 responses, DR7 [2]: 0% | Percentage of donors demonstrating IL-10 responses, DR7 [2]: 0% | Percentage of donors demonstrating TNF-α responses, DR7 [2]: 50% | Percentage of donors demonstrating IFN-γ responses, DR8 [2]: 0% | Percentage of donors demonstrating IL-2 responses, DR8 [2]: 0% | Percentage of donors demonstrating IL-4 responses, DR8 [2]: 0% | Percentage of donors demonstrating IL-10 responses, DR8 [2]: 0% | Percentage of donors demonstrating TNF-α responses, DR8 [2]: 25% | Percentage of donors demonstrating IFN-γ responses, DR9 [2]: 0% | Percentage of donors demonstrating IL-2 responses, DR9 [2]: 0% | Percentage of donors demonstrating IL-4 responses, DR9 [2]: 0% | Percentage of donors demonstrating IL-10 responses, DR9 [2]: 0% | Percentage of donors demonstrating TNF-α responses, DR9 [2]: 25% | Percentage of donors demonstrating IFN-γ responses, DR11 [2]: 25% | Percentage of donors demonstrating IL-2 responses, DR11 [2]: 25% | Percentage of donors demonstrating IL-4 responses, DR11 [2]: 0% | Percentage of donors demonstrating IL-10 responses, DR11 [2]: 0% | Percentage of donors demonstrating TNF-α responses, DR11 [2]: 50% | Percentage of donors demonstrating IFN-γ responses, DR13 [2]: 0% | Percentage of donors demonstrating IL-2 responses, DR13 [2]: 0% | Percentage of donors demonstrating IL-4 responses, DR13 [2]: 0% | Percentage of donors demonstrating IL-10 responses, DR13 [2]: 0% | Percentage of donors demonstrating TNF-α responses, DR13 [2]: 14% | Percentage of donors demonstrating IFN-γ responses, DR15 [2]: 14% | Percentage of donors demonstrating IL-2 responses, DR15 [2]: 14% | Percentage of donors demonstrating IL-4 responses, DR15 [2]: 0% | Percentage of donors demonstrating IL-10 responses, DR15 [2]: 14% | Percentage of donors demonstrating TNF-α responses, DR15 [2]: 29%

NVDENANAN [Cluster 292_3D7]
IC50 (nM) ([1]; allele A0101, cell-free competition with fluorescently labeled control peptide, fluorescence polarization at 72 hours): Non-Binder

CC(C)[C@H](NC(=O)[C@H](CO)NC(=O)[C@H](CS)NC(=O)[C@@H]1CCCN1C(=O)[C@H](CO)NC(=O)[C@H](Cc1c[nH]c2ccccc12)NC(=O)[C@H](CCC(=O)O)NC(=O)[C@@H](NC(=O)[C@@H](N)CO)[C@@H](C)O)C(=O)O [Cluster 328_3D7] (H-STEWSPCSV-OH)
IC50 [1, 3]: 3180 nM

CC[C@H](C)[C@H](NC(=O)[C@H](CO)NC(=O)[C@H](CO)NC(=O)[C@@H](N)CC(N)=O)C(=O)NCC(=O)N[C@@H](CC(C)C)C(=O)N[C@H](C(=O)N[C@@H](CCSC)C(=O)N[C@H](C(=O)O)C(C)C)[C@@H](C)CC [Cluster 382_3D7] (H-NSSIGLIMV-OH)
IC50 [1, 3]: 215000 nM
